According to paper PMC12136037, “Type II kinase inhibitors that target Parkinson’s disease–associated LRRK2” (Science Advances, 2025):

Columns and labels:
Test in all cases: DSF 100 kinase selectivity screen;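 note: compound tested at 20 µM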
Format in all cases: binding
[1] = molecular target: T1, ~100 representative kinases (Homo sapiens, UniProt Q96PY6); conditions: protein NEK1; average of three replicates
T1 construct: Recombinant protein kinase domains with a concentration of 2 μM
T1 sequence (Q96PY6 1-1258): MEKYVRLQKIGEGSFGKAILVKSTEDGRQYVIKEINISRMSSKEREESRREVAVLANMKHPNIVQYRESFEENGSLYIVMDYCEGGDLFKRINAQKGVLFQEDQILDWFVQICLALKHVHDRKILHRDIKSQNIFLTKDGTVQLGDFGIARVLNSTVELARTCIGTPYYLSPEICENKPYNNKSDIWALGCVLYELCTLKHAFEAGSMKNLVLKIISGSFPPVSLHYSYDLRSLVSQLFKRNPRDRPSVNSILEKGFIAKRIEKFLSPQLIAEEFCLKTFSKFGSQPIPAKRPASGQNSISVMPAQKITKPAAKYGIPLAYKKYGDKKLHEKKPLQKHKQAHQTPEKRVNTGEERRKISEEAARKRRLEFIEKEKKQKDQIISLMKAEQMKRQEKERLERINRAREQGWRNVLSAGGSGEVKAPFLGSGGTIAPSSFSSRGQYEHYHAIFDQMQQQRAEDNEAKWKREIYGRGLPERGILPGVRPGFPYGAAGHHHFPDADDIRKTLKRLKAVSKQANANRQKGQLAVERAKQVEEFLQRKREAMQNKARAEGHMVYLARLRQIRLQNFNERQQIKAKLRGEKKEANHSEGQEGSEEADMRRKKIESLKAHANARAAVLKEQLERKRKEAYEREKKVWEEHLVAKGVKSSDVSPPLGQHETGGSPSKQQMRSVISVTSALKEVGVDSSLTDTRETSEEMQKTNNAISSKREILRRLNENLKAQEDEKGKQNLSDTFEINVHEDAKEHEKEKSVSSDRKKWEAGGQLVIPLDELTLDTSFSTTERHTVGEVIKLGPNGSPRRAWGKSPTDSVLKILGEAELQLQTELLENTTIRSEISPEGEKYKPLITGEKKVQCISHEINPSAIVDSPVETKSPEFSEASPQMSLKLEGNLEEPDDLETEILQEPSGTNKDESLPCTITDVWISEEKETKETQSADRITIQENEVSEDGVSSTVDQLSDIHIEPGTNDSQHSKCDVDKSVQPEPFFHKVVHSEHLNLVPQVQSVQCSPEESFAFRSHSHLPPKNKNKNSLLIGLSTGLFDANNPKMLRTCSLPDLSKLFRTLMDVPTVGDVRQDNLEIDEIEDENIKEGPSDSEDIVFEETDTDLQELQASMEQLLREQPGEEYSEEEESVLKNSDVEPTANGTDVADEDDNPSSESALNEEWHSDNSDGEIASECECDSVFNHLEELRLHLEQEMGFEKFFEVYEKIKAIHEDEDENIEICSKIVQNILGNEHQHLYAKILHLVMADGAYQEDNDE
Outline: (§1)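 Each kinase domain, at 2 μM, is mixed with 20 μM test compound and SYPRO Orange in Hepes (20 mM, pH 7.5) with 500 mM NaCl. Temperature is then raised at 3°C/min and fluorescence-monitored unfolding yields the melting temperature change, ΔTm in degrees Celsius.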

[2] = molecular target: T2, ~100 representative kinases (Homo sapiens, UniProt P22830); conditions: protein FECH; average of three replicates
T2 construct: Recombinant protein kinase domains with a concentration of 2 μM
T2 sequence (P22830 55-423): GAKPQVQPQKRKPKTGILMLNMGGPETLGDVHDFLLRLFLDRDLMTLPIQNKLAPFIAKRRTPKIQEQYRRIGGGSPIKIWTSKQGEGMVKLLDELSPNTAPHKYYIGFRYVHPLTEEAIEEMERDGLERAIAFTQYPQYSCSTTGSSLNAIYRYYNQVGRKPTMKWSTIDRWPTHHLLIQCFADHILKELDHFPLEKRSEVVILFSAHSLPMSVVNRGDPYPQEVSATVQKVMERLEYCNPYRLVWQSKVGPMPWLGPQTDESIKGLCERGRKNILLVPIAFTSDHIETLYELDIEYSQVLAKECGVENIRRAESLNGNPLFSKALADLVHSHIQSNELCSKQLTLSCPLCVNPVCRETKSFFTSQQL
Outline: as §1

[3] = molecular target: T3, ~100 representative kinases (Homo sapiens, UniProt P49759); conditions: Protein CLK1; average of three replicates
T3 construct: Recombinant protein kinase domains with a concentration of 2 μM
T3 sequence (P49759 whole entry, the tested form may be a part): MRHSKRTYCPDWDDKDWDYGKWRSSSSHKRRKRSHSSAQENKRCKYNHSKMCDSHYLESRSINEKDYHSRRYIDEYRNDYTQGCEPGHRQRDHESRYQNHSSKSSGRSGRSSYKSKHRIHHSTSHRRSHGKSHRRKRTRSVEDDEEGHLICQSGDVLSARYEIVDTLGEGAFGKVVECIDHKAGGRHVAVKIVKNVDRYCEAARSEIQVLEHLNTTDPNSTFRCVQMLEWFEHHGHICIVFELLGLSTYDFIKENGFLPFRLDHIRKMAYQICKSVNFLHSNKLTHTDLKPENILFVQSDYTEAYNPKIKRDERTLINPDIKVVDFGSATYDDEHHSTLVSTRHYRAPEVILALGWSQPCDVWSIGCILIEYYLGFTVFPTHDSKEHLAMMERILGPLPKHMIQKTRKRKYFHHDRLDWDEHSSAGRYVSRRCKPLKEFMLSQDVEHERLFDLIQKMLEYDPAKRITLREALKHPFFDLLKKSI
Outline: as §1

[4] = molecular target: T4, ~100 representative kinases (Homo sapiens, UniProt O14936); conditions: Protein CASK; average of three replicates
T4 construct: Recombinant protein kinase domains with a concentration of 2 μM
T4 sequence (O14936 1-926): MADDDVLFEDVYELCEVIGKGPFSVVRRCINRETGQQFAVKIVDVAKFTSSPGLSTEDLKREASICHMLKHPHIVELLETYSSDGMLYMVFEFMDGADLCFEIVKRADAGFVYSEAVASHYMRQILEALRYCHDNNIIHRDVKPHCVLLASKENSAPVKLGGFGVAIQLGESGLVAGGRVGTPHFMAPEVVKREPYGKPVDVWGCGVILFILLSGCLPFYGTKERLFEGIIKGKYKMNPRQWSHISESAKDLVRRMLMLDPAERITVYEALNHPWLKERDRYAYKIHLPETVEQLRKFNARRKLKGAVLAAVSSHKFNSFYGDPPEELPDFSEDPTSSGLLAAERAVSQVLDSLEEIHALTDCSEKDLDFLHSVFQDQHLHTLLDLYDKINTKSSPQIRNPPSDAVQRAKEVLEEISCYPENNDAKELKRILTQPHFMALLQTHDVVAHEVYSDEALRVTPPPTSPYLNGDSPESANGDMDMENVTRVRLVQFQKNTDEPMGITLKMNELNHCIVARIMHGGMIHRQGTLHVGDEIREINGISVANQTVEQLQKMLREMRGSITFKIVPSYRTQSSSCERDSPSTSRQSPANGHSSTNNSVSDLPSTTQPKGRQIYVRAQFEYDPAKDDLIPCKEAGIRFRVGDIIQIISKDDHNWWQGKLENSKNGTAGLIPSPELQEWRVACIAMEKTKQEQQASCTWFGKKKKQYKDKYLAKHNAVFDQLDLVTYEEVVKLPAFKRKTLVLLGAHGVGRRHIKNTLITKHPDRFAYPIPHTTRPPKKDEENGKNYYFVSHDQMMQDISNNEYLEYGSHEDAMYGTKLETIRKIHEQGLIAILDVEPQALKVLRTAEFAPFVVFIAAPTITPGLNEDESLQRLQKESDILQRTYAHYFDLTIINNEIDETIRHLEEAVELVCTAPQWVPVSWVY
Outline: as §1

[5] = molecular target: T5, ~100 representative kinases (Homo sapiens, UniProt O15075); conditions: Protein DCAMKL1; average of three replicates
T5 construct: Recombinant protein kinase domains with a concentration of 2 μM
T5 sequence (O15075 whole entry, the tested form may be a part): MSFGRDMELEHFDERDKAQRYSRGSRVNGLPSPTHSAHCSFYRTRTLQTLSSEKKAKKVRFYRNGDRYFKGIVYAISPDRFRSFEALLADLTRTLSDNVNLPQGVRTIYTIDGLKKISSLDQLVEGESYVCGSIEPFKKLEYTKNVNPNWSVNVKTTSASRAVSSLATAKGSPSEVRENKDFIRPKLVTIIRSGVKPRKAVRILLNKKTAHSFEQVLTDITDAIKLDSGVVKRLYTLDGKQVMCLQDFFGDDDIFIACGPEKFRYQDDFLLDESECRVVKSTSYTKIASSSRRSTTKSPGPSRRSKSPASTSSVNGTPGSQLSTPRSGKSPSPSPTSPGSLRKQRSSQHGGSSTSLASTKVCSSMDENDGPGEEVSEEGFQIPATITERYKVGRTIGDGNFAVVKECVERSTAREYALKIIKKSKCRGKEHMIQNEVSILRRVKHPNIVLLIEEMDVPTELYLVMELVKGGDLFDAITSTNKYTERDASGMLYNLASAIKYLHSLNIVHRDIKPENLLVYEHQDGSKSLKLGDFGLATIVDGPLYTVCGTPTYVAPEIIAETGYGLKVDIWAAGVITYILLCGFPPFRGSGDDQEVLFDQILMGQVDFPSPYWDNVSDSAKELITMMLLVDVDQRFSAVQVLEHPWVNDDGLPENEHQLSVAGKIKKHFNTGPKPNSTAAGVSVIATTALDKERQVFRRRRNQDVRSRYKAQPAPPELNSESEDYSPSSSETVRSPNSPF
Outline: as §1

| Compound | dTm [1] [K] | dTm [2] [K] | dTm [3] [K] | dTm [4] [K] | dTm [5] [K] |
| --- | --- | --- | --- | --- | --- |
| Cc1ccc(NC(=O)C2(C(=O)Nc3cccc(-c4c[nH]c5ncnc(N6CCOCC6)c45)c3)CC2)cc1 [Compound 14] | 0.23 | 0.67 | 6.84 | 0.19 | -0.07 |
| Cc1ccc(C(=O)Nc2ccc(CN3CCN(C)CC3)c(C(F)(F)F)c2)cc1C#Cc1cnc2cccnn12 [Ponatinib, reference compound] | 0.42 | – | – | – | – |
| O=C(Nc1ccc(Cl)cc1)C1(C(=O)Nc2cccc(-c3c[nH]c4ncnc(N5CCOCC5)c34)c2)CC1 [Compound 13] | 0.54 | -6.06 | 9.39 | 0.70 | 2.89 |
| Cn1cc(-c2c[nH]c3ncnc(N4CCOCC4)c23)cc1C#N [PFE-360] | 0.39 | – | 7.59 | 0.12 | 0.62 |
| O=C(Nc1cccc(-c2c[nH]c3ncnc(N4CCOCC4)c23)c1)c1cccn(-c2ccc(F)cc2)c1=O [Compound 4] | -0.47 | 2.76 | 9.53 | -0.18 | 0.57 |
| C[C@@H]1CN(c2cc(-c3n[nH]c4ccc(OC5(C)CC5)cc34)ncn2)C[C@H](C)O1 [MLi2] | 0.27 | – | 3.00 | 0.19 | 0.51 |

Other lines, results leading:

| dTm [1] [K] | dTm [2] [K] | dTm [3] [K] | dTm [4] [K] | dTm [5] [K] | Compound |
| --- | --- | --- | --- | --- | --- |
| -1.22 | -10.48 | 17.42 | 0.14 | 2.98 | Cc1ccc(-n2nc(C(C)(C)C)cc2NC(=O)Nc2cccc(-c3c[nH]c4ncnc(N5CCOCC5)c34)c2)cc1 [Compound 29] |
| -0.89 | -5.01 | 8.69 | 1.26 | 4.80 | O=C(Nc1cccc(-c2c[nH]c3ncnc(N4CCOCC4)c23)c1)C1(C(=O)Nc2ccc(F)c(Br)c2)CC1 [Compound 19] |
| -0.32 | -2.64 | 9.40 | 0.56 | 2.36 | O=C(Nc1cccc(-c2c[nH]c3ncnc(N4CCOCC4)c23)c1)C1(C(=O)Nc2ccc(F)c(Cl)c2)CC1 [Compound 18] |
| 0.73 | -0.93 | 5.62 | -0.21 | -0.34 | COc1cc(S(C)(=O)=O)ccc1Nc1nc(N(C)C)c2c(Cl)c[nH]c2n1 [Compound 37] |
| -6.30 | -0.79 | 4.99 | 1.03 | 3.61 | O=C(Nc1cccc(-c2c[nH]c3ncnc(N4CCOCC4)c23)c1)C1(C(=O)Nc2cc(Br)c(F)cc2F)CC1 [Compound 25] |
